# Results as given in patent US9353423B2, “HCV genotype 6 replicons” (priority 2012, dated 2016).
# Where two headings read alike, the source gives them in different places.
# Key:
# Pi-GT6a-Rluc replicon = assay: Replicon antiviral assay, luciferase-encoding GT6a replicon (Table 4); assay type: cell-based, Hepatitis C virus genotype 6a; conditions: for EC50: Hepatitis C virus, GT6A, 72 h, read-out: GT6a EC50
# Method: (§1) Replicon RNA were electroporated into 1C cells as described above. After transfection, cells were quickly transferred into 100 mL of pre-warmed culture medium, and 90 μl was seeded in 384-well plates at a density of 2,000 cells/well. Cells were treated with three-fold serial drug dilutions at 10 different concentrations. Cell plates were incubated at 37° C. for 3 days, after which culture medium was removed and cells were assayed for luciferase activity as markers for replicon levels. Luciferase expression was quantified using a commercial luciferase assay (Promega). Luciferase levels were converted into percentages relative to the levels in the untreated controls (defined as 100%), and data were fitted to the logistic dose-response equation y=a/[1+(x/b)^c] using XLFit4 software (IDBS, Emeryville, Calif.).
# GT6aRluc-K34R replicon = assay: Replicon antiviral assay, transient transfection, luciferase activity (GT6a, NS4A K34R); assay type: cell-based, Hepatitis C virus genotype 6a; conditions: for EC50: Hepatitis C virus, 1C cells, 384-well transient transfection, mean ± SD of at least two experiments
# Method: as §1
# (§2) Five different classes of HCV inhibitors as listed in the first column were evaluated for their antiviral activities against Pi-GT6a-Rluc and Pi-GT1b-Rluc replicons in a high throughput 384-well transient transfection assay, by measuring luciferase activity (Table 5). The data represents an average of at least two independent experiments with standard deviations.
# GT6aRluc-K272R replicon = assay: Replicon antiviral assay, transient transfection, luciferase activity (GT6a, NS3 K272R); assay type: cell-based, Hepatitis C virus genotype 6a; conditions: for EC50: Hepatitis C virus, 1C cells, 384-well transient transfection, mean ± SD of at least two experiments
# Method: as §1, §2
# Pi-GT1b-Rluc replicon = assay: Replicon antiviral assay, transient transfection, luciferase activity (GT1b); assay type: cell-based, Hepatitis C virus genotype 1b; conditions: Hepatitis C virus
# Method: as §1, §2
# [1] = Table 4, 1C cells, 384-well, 3 days, mean ± SD, adaptive mutation not stated
# [2] = Table 5, read-out: GT6aRluc-K34R EC50
# [3] = Table 5, read-out: GT6aRluc-K272R EC50
# [4] = 72 h, Table 4, 1C cells, 384-well, 3 days, mean ± SD, read-out: GT1b EC50
# [5] = Table 5, 1C cells, 384-well transient transfection, mean ± SD of at least two experiments, read-out: GT1bRluc EC50
# [6] = read-out: GT6aRluc-K34R EC50, Table 5
# [7] = read-out: GT6aRluc-K272R EC50, Table 5
Compound,EC50 (Pi-GT6a-Rluc replicon; [1]),GT6a/GT1b EC50 ratio (Pi-GT6a-Rluc replicon; Table 4),EC50 (GT6aRluc-K34R replicon; [2]),GT6a(K34R)/1b EC50 Ratio (GT6aRluc-K34R replicon; Table 5),EC50 (GT6aRluc-K272R replicon; [3]),GT6a(K272R)/1b EC50 ratio (GT6aRluc-K272R replicon; Table 5),EC50 (Pi-GT1b-Rluc replicon; [4]),EC50 (Pi-GT1b-Rluc replicon; [5]),EC50 (GT6aRluc-K34R replicon; [6]),EC50 (GT6aRluc-K272R replicon; [7]),EC50 (Pi-GT6a-Rluc replicon),antiviral activity against GT6a compared with GT1b (Pi-GT6a-Rluc replicon; summary of Table 4)
CC1=CC[C@H](C(=O)N(c2cc(C#CC(C)(C)C)sc2C(=O)O)[C@H]2CC[C@](O)(CO[C@H]3CCOC3)CC2)CC1 [Compound C],877 ± 4 nM,251,877 ± 4 nM,250.6,736 ± 18 nM,210.3,3.5 ± 0.3 nM,3.5 ± 0.3 nM,,,,
COc1ccc2c(O[C@@H]3C[C@H]4C(=O)N[C@]5(C(=O)O)C[C@H]5/C=C\CCCCC[C@H](NC(=O)OC5CCCC5)C(=O)N4C3)cc(-c3csc(NC(C)C)n3)nc2c1 [BILN-2061],,,,17.2,,17.2,,0.99 ± 0.1 nM,17 ± 9 nM,17 nM,,
"COC(=O)N[C@H](C(=O)N1CCC[C@H]1c1nc(-c2ccc(-c3ccc(-c4c[nH]c([C@@H]5CCCN5C(=O)[C@@H](NC(=O)OC)C(C)C)n4)cc3)cc2)c[nH]1)C(C)C [Daclatasvir, daclatasvir]",0.06 ± 0.03 nM,1.8,0.04 ± 0.01 nM,1.2,0.08 ± 0.04 nM,2.4,0.034 ± 0.018 nM,0.034 ± 0.018 nM,,,,
CCC[C@H](NC(=O)[C@@H]1[C@H]2CCC[C@H]2CN1C(=O)[C@@H](NC(=O)[C@@H](NC(=O)c1cnccn1)C1CCCCC1)C(C)(C)C)C(=O)C(=O)NC1CC1 [Telaprevir],349 ± 20 nM,0.8,349 ± 20 nM,0.8,208 ± 41 nM,0.5,428 ± 22 nM,428 ± 22 nM,,,,
CCC1C[C@]1(NC(=O)[C@@H]1C[C@@H](Oc2cc(-c3csc(NC(C)C)n3)nc3c(Cl)c(OCCN4CCOCC4)ccc23)CN1C(=O)[C@@H](NC(=O)O[C@@H]1C[C@@H]2C[C@@H]2C1)C(C)(C)C)C(=O)O (some centres unmarked) [Compound A],72 ± 25 nM,8.7,,,,,8.3 ± 1.6 nM,,,,,
"CCc1cc(CC[C@]2(C3CCCC3)CC(O)=C(Cc3nc4nc(C)cc(C)n4n3)C(=O)O2)cc(CC)n1 [Filibuvir, filibuvir]",,32,> 4440 nM,>40,3540 ± 93 nM,31.6,112 ± 13 nM,112 ± 13 nM,,,3540 ± 93 nM,
CNC(=O)c1c(-c2ccc(F)cc2)oc2cc(N(CCO)S(C)(=O)=O)c(C3CC3)cc12 [HCV-796],21 ± 0.5 nM,1.0,21 nM,1.1,21 nM,1.1,20 ± 5.5 nM,20 ± 5.5 nM,,,,retained activity against GT6a
"CC(C)OC(=O)[C@H](C)N[P@](=O)(OC[C@H]1O[C@@H](n2ccc(=O)[nH]c2=O)[C@](C)(F)[C@@H]1O)Oc1ccccc1 [Sofosbuvir, sofosbuvir]",14 ± 4.1 nM,0.4,14 ± 4 nM,0.4,14 ± 5 nM,0.4,39 ± 1.1 nM,39 ± 1.1 nM,,,,
C=C[C@@H]1C[C@]1(NC(=O)[C@@H]1C[C@@H]2CN1C(=O)[C@H](C(C)(C)C)NC(=O)O[C@@H]1C[C@H]1CCCCCc1nc3ccc(OC)cc3nc1O2)C(=O)NS(=O)(=O)C1CC1 [MK-5172],,3.1,1.4 ± 0.3 nM,1.9,3 ± 0.4 nM,4.1,0.74 ± 0.07 nM,0.74 ± 0.07 nM,,,2.3 ± 0.3 nM,
CN(C)CCN(C)[C@H]1COc2ccccc2-c2c(C3CCCCC3)c3ccc(C(=O)O)cc3n2C1 [MK-3281],,,1280 ± 471 nM,2.4,1310 ± 635 nM,2.5,,534 ± 47 nM,,,,
"CC(C)(C)NC(=O)N[C@H](C(=O)N1C[C@H]2[C@@H]([C@H]1C(=O)NC(CC1CCC1)C(=O)C(N)=O)C2(C)C)C(C)(C)C (some centres unmarked) [Boceprevir, boceprevir]",177 ± 21 nM,0.9,,0.9,,1,188 ± 42 nM,181 ± 42 nM,168 ± 21 nM,185 ± 42 nM,,
"Fc1ccccc1-c1nc2ccn(Cc3ccc(-c4ccc(C(F)(F)F)cc4C(F)(F)F)nn3)cc-2n1 [Tegobuvir, tegobuvir]",119 ± 6 nM,46,119 ± 6 nM,45.8,110 ± 21 nM,42.3,2.6 ± 0.2 nM,2.6 ± 0.2 nM,,,,
COC(=O)N[C@H](C(=O)N1CC2(CC2)C[C@H]1c1nc(-c2ccc3c(c2)C(F)(F)c2cc(-c4ccc5cc([C@@H]6[C@H]7CC[C@H](C7)N6C(=O)[C@@H](NC(=O)OC)C(C)C)[nH]c5c4)ccc2-3)c[nH]1)C(C)C [Compound B],0.79 ± 0.05 nM,113,,,,,0.007 ± 0.003 nM,,,,,
